Assay [1] concerns the target T1, Beta-secretase 1 (Homo sapiens, UniProt P56817). Briefly: Inhibition of BACE1 expressed in HEK cells by cell-based assay. On the set-up: species or system HEK293.
Assay [2] concerns the target T1, Beta-secretase 1. Briefly: Inhibition of BACE1 by FRET assay.

As usually defined, the IC50 is the point on the concentration scale where inhibition reaches its midpoint. Read a low IC50 as greater potency.

T1 sequence (P56817 whole entry): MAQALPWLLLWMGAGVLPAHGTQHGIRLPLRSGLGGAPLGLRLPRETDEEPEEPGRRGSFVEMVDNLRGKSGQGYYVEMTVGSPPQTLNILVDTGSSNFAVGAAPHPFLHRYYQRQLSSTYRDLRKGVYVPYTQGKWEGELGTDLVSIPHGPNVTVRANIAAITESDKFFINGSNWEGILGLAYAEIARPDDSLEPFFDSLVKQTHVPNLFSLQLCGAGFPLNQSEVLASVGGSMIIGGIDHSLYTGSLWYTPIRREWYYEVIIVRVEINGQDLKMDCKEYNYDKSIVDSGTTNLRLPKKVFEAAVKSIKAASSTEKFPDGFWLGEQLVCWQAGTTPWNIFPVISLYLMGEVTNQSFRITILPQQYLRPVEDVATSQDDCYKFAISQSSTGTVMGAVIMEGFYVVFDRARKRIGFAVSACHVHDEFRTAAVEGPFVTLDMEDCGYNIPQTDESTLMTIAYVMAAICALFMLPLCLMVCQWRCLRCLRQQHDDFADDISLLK

Take `NC1=N[C@@]2(COCC1)c1cc(-c3cccnc3F)ccc1Oc1cnc(-c3ccnc(F)c3)cc12`: in assay [1], the IC50 was 1 nM.

As for `CC(C)(C)COc1cc(F)c2c(c1)[C@]1(COCCC(N)=N1)c1cc(-c3cccnc3F)ccc1O2`, in assay [1], the midpoint of inhibition, the IC50, lay at 7 nM.

With `NC1=N[C@@]2(CCOC1)c1cc(-c3cccnc3F)ccc1Oc1cnc(-c3ccc(F)c(F)c3)cc12`, the figures for the IC50 in assay [2] and in assay [1] were 2 nM and 19 nM, respectively.

With `NC1=N[C@@]2(CCOC1)c1cc(-c3cccnc3F)ccc1Oc1cnc(C3CCC(F)(F)C3)cc12` (stereo partly specified), the results for the IC50 in assay [2] and in assay [1] were 3 nM and 4 nM, respectively.
